The text below walks through data of patent publication US12215067B2, “Chemical compounds targeting the eye and use thereof in the treatment of eye diseases” (BIOPHYTIS, priority 2019, dated 2025).

Where two headings read alike, the source gives them in different places.

A short description of data set [1]: Pharmacokinetic study via oral administration in mice, ocular concentrations. The note with it: for Tmax: C57BL/6, mouse, eye, po; for Tmax / Eye CMax: mice, p.o. 50 mg/kg in VitE-TPGS 20% in sodium bicarbonate buffer (0.1M); for Eye Exposure 50 mg/kg p.o. AUC: Table 3, repeats the eye exposure of Table 2. Format: in vivo, mice C57BL/6. As to the method: (§1) The pharmacokinetic study of the chemical compounds (C) following the oral administration thereof was conducted using mice C57BL/6 (January, 53940 The Genest Saint Isle, France). The chemical compounds derived from norbixin (C) were administered at a dose of 50 mg/kg of body weight. After administration, the blood was sampled at the tail at t=0.25 h; 0.5 h; 1 h; 3 h; 6 h and 8 h. The blood samples were centrifuged and the plasmas taken. The dosage of the plasma samples made it possible to determine pharmacokinetic parameters, namely Cmax, which corresponds to the maximum concentration observed after the administration of the molecule, Tmax which is the time required to reach maximum concentration after administration of the molecule and the AUC: the area under the curve which corresponds to the plasma exposure (FIG. 2).
In parallel, the ocular concentrations of the chemical compounds derived from norbixin (C) were dosed in the following way (FIG. 1): both eyes of each mouse were taken in Precellys tubes and stored at −80° C. until the time of dosing. The eyes are then ground in the Precellys tubes with a bench homogenizer, Fast-prep (Fischer Scientific, Hampton, United States) in a mixture of organic solvents, in a first step with 500 μL of chloroform/methanol (1/1, v/v) then 500 μL of chloroform/dichloromethane (1/1, v/v). The supernatants are recovered at each step and transferred to a 96-well plate of 2 mL.
For the quantification of the chemical compounds C, a calibration curve is carried out with 8 standards (5 to 5,000 ng/mL) in the same organic solvent mixtures and transferred (100 μL) to the 96-well plate of 2 mL.
The supernatants and standards are evaporated in a EZ2 (Genevac, Ipswich, United Kingdom), without heating, then taken with 100 μL of DMSO/methanol (20:80, v/v) before being transferred to a 96-well plate of 200 μL.
(§2) The LC-MSMS analysis is carried out with a HPLC 1200 Infinity chain (Agilent Technologies, Santa-Clara, United States), a UV detector and a mass spectrometer QQQ6420 (Agilent Technologies Santa-Clara, United States). The injection volume is 5 μL. The chemical compounds C are eluted on an inverse phase column C18 (2.1*50 mm, particles 3 μm; Ace-C18-Excel, AIT) with a gradient of acetonitrile and water (containing 0.1% formic acid) and a flow rate of 0.3 mL/min. The conditions of the gradient can change according to the chemical compound C analyzed. The UV detector analyzes at 460 nm and the mass spectrometer analyzed in Mode MRM—Positive.
(§3) Table 2 discloses the pharmacokinetic results of the chemical compounds C following the administration p.o. 50 mg/kg in D-α-Tocopheryl polyethylene glycol 1000 succinate (VitE-TPGS) 20% in a sodium bicarbonate buffer (0.1M).

The test system of data set [2] is primary cultures of RPE of adult pigs. Nature of the data set: In vitro photoprotection of RPE cells illuminated with blue light in the presence of A2E. In kind it is cell-based, pig. The note with it: Sus scrofa, RPE, A2E 30 μM, survival 24 h after illumination; for viability at 5 µM: 5 μM compound; for viability at 10 µM: 10 μM compound; for viability at 20 µM: 20 μM compound. From the text:
In addition to better distribution in the target-tissue, selecting new compounds must also be based on good photo-protective activity that limits the loss of the cells of the RPE and thus reducing the retinal degeneration observed during the AMD and other degenerative diseases such as Retinitis pigmentosa and Stargardt's disease. At the cellular level, on cultures of cells the RPE coming from pig retina, Fontaine et al. (2016) have shown that a treatment with norbixin (BIO201) protects the cells of the RPE against apoptosis following an illumination in the presence of A2E (80% survival 24 h after exposure). This same screening test according to the percentage of photoprotection was used so as to determine its modulation by and the chemical compounds derived from norbixin (C) object of the present invention in comparison with the photo-protective effect of norbixin and characterize these modulations from a statical standpoint.
The test in vitro described hereinabove and intended to study the photo-protective effect of norbixin was used so as to quantify the photo-protective effects of the various chemical compounds derived from norbixin (C) on the cells of the RPE illuminated with blue light in the presence of A2E (FIG. 3). The photo-protective effect of the molecules was evaluated in a phototoxicity cellular model induced by treatment by A2E followed by an illumination with blue light. The term “blue radiation” means the radiation corresponding to the blue band of the visible light spectrum, i.e. of a wavelength comprised between 435 and 490 nm. This model uses primary cultures of RPE of adult pigs. The cell survival is quantified thanks to a test of cellular viability. At −48 h the compounds to be tested (in solution at 5 mM in the DMSO) are added to obtain the final concentrations of 1 to 20 μM) then at −19 h of the A2E (final concentration 30 μM) and the cells (time 0 h) are illuminated. 24 h after the survival of the cells is measured. The acquisition of images, as well as the processing thereof, are carried out using a fluorescence microscope controlled by the Metamorph software and a dedicated quantification program. The experiments are conducted on a 96-well microplate in quadruplicate and the experiment is reproduced at least four times. The results are expressed in the form of a ratio representing the number of living cells in the wells treated by the molecules to be tested, divided by the number of living cells in the controlled wells (treated by the dilution medium without A2E). This test made it possible hereinabove to reveal the photo-protective activity of norbixin (Fontaine et al. 2016).

The nature of data set [3]: Pharmacokinetic study via oral administration in mice, plasma concentrations. In kind it is in vivo, mice C57BL/6. As to the method:
as §1, §2, §3

[4] abbreviates: C57BL/6, mouse, in vivo, po, 50 mg/kg.

For the compound `CC(=C/C=C/C(C)=C/C=C/C=C(C)/C=C/C=C(C)/C=C/C(=O)N1CCC(O)C1)/C=C/C(=O)O` (stereo in doubt) [C9, 1-[(S)-3-hydroxypyrrolidinamido](2E,4E,6E,8E,10E,12E,14E,16Z,18E)-4,8,13,17-tetramethylicosa-2,4,6,8,10,12,14,16,18-nonaenedioate], in data set [1], the Tmax (in general, the time at which the peak concentration occurs) is 60 min; the “Eye Exposure 50 mg/kg p.o. AUC” value turned out to be 452.0 ng · h/eye; the “Eye CMax” value is recorded as 53.1 ng/eye. In data set [2], the viability (usually the share of living cells, or the viability signal relative to a control) at 5 µM is 22.1%; the viability at 10 µM was 32%; the viability at 20 µM was determined as 63.7%. Also, in data set [3] (setting [4]), the Cmax (as a rule, the maximum level reached in the sampled fluid or tissue) is 37900 ng/mL; the “Plasma Exposure” value turned out to be 342.68 µg·h/mL; the Tmax is 60 min.

With `CC(=C/C=C/C(C)=C/C=C/C=C(C)/C=C/C=C(C)/C=C/C(=O)N1CCC(O)C1)/C=C/C(=O)O` (stereo in doubt) [C11, 1-[(R)-3-hydroxypyrrolidinamido](2E,4E,6E,8E,10E,12E,14E,16Z,18E)-4,8,13,17-tetramethylicosa-2,4,6,8,10,12,14,16,18-nonaenedioate], in data set [1], the Tmax amounted to 60 min, the “Eye Exposure 50 mg/kg p.o. AUC” value is given as 238.4 ng · h/eye and the “Eye CMax” value turned out to be 47.7 ng/eye. Also, in data set [2], the viability at 5 µM worked out at 21.1%, the viability at 10 µM is 39.3% and the viability at 20 µM was 63.4%. Moreover, in data set [3] (setting [4]), the highest level (Cmax) was 35900 ng/mL, the “Plasma Exposure” value is 190 µg·h/mL and the Tmax amounted to 60 min.

As to `COCCNC(=O)/C=C/C(C)=C/C=C/C(C)=C/C=C/C=C(C)/C=C/C=C(C)\C=C\C(=O)O` [C1, 1-[2-methoxyethanamido](2E,4E,6E,8E,10E,12E,14E,16Z,18E)-4,8,13,17-tetramethylicosa-2,4,6,8,10,12,14,16,18-nonaenedioate], in data set [1], the Tmax turned out to be 30 min, the “Eye Exposure 50 mg/kg p.o. AUC” value came to 26.6 ng · h/eye and the “Eye CMax” value came out at 10.7 ng/eye. Moreover, in data set [2], the viability at 5 µM was found to be 55%, the viability at 10 µM stood at 67.7% and the viability at 20 µM was 77.8%. Besides, in data set [3] (setting [4]), the Cmax worked out at 18700 ng/mL, the “Plasma Exposure” value was determined as 52.66 µg·h/mL and the Tmax came to 30 min.

In the case of `CC(=C/C=C/C(C)=C/C=C/C=C(C)/C=C/C=C(C)/C=C/C(=O)N1CCOCC1)/C=C/C(=O)O` [C2, 1-[1,4-oxazinamido](2E,4E,6E,8E,10E,12E,14E,16Z,18E)-4,8,13,17-tetramethylicosa-2,4,6,8,10,12,14,16,18-nonaenedioate], in data set [1], the Tmax amounted to 30 min, the “Eye Exposure 50 mg/kg p.o. AUC” value is 186.5 ng · h/eye and the “Eye CMax” value is given as 41 ng/eye. In data set [2], the viability at 5 µM is 33.9%, the viability at 10 µM turned out to be 22.3% and the viability at 20 µM amounted to 49.1%. Moreover, in data set [3] (C57BL/6, mouse, in vivo, po, mice, p.o. 50 mg/kg in VitE-TPGS 20% in sodium bicarbonate buffer (0.1M), read-out: Plasma CMax), the Cmax came to 34000 ng/mL. Further, the Tmax in data set [3] (C57BL/6, mouse, in vivo, po, mice, p.o. 50 mg/kg in VitE-TPGS 20% in sodium bicarbonate buffer (0.1M), read-out: Plasma TMax) is 30 min. For the same compound, in data set [3] (mice, p.o. 50 mg/kg in VitE-TPGS 20% in sodium bicarbonate buffer (0.1M), area under the curve), the “Plasma Exposure” value was found to be 176.2 µg·h/mL.

With `CC(=C/C=C/C(C)=C/C=C/C=C(C)/C=C/C=C(C)/C=C/C(=O)N1CCCCC1)/C=C/C(=O)O` [C3, 1-[piperidinamido](2E,4E,6E,8E,10E,12E,14E,16Z,18E)-4,8,13,17-tetramethylicosa-2,4,6,8,10,12,14,16,18-nonaenedioate], in data set [1], the Tmax stood at 30 min, the “Eye Exposure 50 mg/kg p.o. AUC” value turned out to be 19.1 ng · h/eye and the “Eye CMax” value is recorded as 5.1 ng/eye. Moreover, in data set [2], the viability at 5 µM amounted to 11.3%, the viability at 10 µM came out at 68.1% and the viability at 20 µM was 45.1%. In data set [3] (setting [4]), the highest level (Cmax) was 4050 ng/mL, the “Plasma Exposure” value stood at 10.37 µg·h/mL and the Tmax is 30 min.

`CC(=C/C=C/C(C)=C/C=C/C=C(C)/C=C/C=C(C)/C=C/C(=O)NCCO)/C=C/C(=O)O` [C4, 1-[2-hydroxyethanamido](2E,4E,6E,8E,10E,12E,14E,16Z,18E)-4,8,13,17-tetramethylicosa-2,4,6,8,10,12,14,16,18-nonaenedioate]: in data set [1], the Tmax was found to be 30 min, the “Eye Exposure 50 mg/kg p.o. AUC” value came out at 30.0 ng · h/eye and the “Eye CMax” value is listed as 10.2 ng/eye. In data set [2], the viability at 5 µM was 16.4%, the viability at 10 µM was found to be 36% and the viability at 20 µM stood at 67.2%. Besides, in data set [3] (setting [4]), the Cmax was determined as 57100 ng/mL, the “Plasma Exposure” value is 208.6 µg·h/mL and the Tmax turned out to be 60 min.

Take `CC(=C/C=C/C(C)=C/C=C/C=C(C)/C=C/C=C(C)/C=C/C(=O)N1CCCOCC1)/C=C/C(=O)O` [C5, 1[1,4-oxazepanamido](2E,4E,6E,8E,10E,12E,14E,16Z,18E)-4,8,13,17-tetramethylicosa-2,4,6,8,10,12,14,16,18-nonaenedioate]: in data set [1], the Tmax was determined as 30 min, the “Eye Exposure 50 mg/kg p.o. AUC” value was 188.7 ng · h/eye and the “Eye CMax” value stood at 31.4 ng/eye. For the same compound, in data set [2], the viability at 5 µM was 11.3%, the viability at 10 µM came to 25.6% and the viability at 20 µM was found to be 36%. In data set [3] (setting [4]), the highest level (Cmax) was 37700 ng/mL, the “Plasma Exposure” value was 299.9 µg·h/mL and the Tmax came to 60 min.

Consider `CC(=C/C=C/C(C)=C/C=C/C=C(C)/C=C/C=C(C)/C=C/C(=O)N1CCSCC1)/C=C/C(=O)O` [C6], for which, in data set [1], the time to peak (Tmax) is 30 min, the “Eye Exposure 50 mg/kg p.o. AUC” value was 23.1 ng · h/eye and the “Eye CMax” value is listed as 3.9 ng/eye. In data set [2], the viability at 10 µM was 60.6% and the viability at 20 µM is 19.1%. Further, in data set [3] (setting [4]), the Cmax was 3950 ng/mL, the “Plasma Exposure” value stood at 10.81 µg·h/mL and the Tmax was determined as 30 min.
